Laboratory results: patent US10975068B2, “6-aminopyridin-3-yl thiazoles as modulators of RORγT” (Janssen Pharmaceutica NV, priority 2016, dated 2021)
Where two headings read alike, the source gives them in different places.

Assays:
[1] = biological target: human RORγt ligand binding domain (RORγt LBD) (Homo sapiens (Human), UniProt P51449); assay: RORγt ThermoFluor® assay (thermal shift binding); conditions: read-out: ThermoFluor® Assay, Kd
Summary of the method: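 His-tagged human RORγt LBD (0.065 mg/mL) with 60 μM 1,8-ANS in 100 mM Hepes pH 7.0, 10 mM NaCl, 2.5 mM GSH, 0.002% Tween-20 was heated at 1 °C/min.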

full-length human RORγt = full-length human RORγt (Homo sapiens (Human), UniProt P51449); assay: RORγt (full-length human) reporter assay, Conditions B or C; assay type: cell-based; conditions: for inhibition at 3 µM: at 3 μM compound concentration, read-out: RORγt (FL) Reporter Assay B or C, % inhibition; for IC50: read-out: RORγt (FL) Reporter Assay B or C, IC50; for RORγt (FL) Reporter Assay B or C, % inhibition (value marked *): marked *: footnote not given
Chain of full-length human RORγt (P51449 other isoform, or with tags, fused parts or gaps): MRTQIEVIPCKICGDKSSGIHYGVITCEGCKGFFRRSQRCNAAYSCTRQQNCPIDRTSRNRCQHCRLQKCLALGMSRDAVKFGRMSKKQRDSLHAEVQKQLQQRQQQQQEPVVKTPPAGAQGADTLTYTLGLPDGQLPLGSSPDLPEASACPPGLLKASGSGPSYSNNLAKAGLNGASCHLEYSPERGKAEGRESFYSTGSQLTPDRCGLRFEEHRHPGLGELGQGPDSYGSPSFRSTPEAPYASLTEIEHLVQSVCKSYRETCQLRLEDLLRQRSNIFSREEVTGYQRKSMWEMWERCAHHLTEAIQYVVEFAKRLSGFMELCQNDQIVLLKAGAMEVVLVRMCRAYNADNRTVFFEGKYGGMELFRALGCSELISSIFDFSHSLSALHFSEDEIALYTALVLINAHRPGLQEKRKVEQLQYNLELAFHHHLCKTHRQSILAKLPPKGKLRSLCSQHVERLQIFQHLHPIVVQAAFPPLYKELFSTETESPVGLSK
Summary of the method: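 HEK293T cells transiently co-transfected with GAL4-DBD–full-length human RORγt (nt 142-1635, NM_001001523.1) plus GAL4-firefly and CMV-Renilla luciferase reporters; compounds added 4-6 h post-transfection for 16-20 h in 1.3% FBS, 0.1% DMSO. Firefly signal normalized to DMSO and saturating reference compound, then to Renilla; IC50 from concentration plots.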

Chain of human RORγt ligand binding domain (RORγt LBD) (P51449 other isoform, or with tags, fused parts or gaps): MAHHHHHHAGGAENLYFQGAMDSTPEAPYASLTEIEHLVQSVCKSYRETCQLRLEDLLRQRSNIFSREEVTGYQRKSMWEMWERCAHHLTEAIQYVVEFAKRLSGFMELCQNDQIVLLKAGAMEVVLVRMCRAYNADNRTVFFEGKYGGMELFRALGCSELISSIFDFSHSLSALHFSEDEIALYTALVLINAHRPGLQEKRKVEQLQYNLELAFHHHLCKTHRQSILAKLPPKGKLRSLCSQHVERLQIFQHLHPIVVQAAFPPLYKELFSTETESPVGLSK

SMILES | Kd [1] [nM] | inhibition at 3 µM (full-length human RORγt) [%] | IC50 (full-length human RORγt) [nM] | RORγt (FL) Reporter Assay B or C, % inhibition (value marked *) (full-length human RORγt; Conditions B or C) | IC50 (full-length human RORγt; Conditions B or C) [nM] | inhibition at 6 µM (full-length human RORγt; read-out: RORγt (FL) Reporter Assay B or C, % inhibition @ 6 μM, Conditions B or C, @ 6 μM) [%]
CC1(Nc2cc(C(F)F)c(-c3sc(C(=O)N[C@H]4C[C@H](O)C4)nc3C(=O)N3C4CCC3CC4)cn2)CCC1 [Example 330, 4-((1s,4s)-7-Azabicyclo[2.2.1]heptane-7-carbonyl)-5-(4-(difluoromethyl)-6-((1-methylcyclobutyl)amino)pyridin-3-yl)-N-((1r,3R)-3-hydroxycyclobutyl)thiazole-2-carboxamide] | 4.2 | 93 | 16 | – | – | –
C[C@H](Nc1cc(C(F)F)c(-c2sc(C(=O)N[C@@H]3CC[C@@H]3O)nc2C(=O)N2CCC[C@@H]2C)cn1)C(F)(F)F (relative stereo) [Example 391, 5-(4-(Difluoromethyl)-6-(((S)-1,1,1-trifluoropropan-2-yl)amino)pyridin-3-yl)-N-((1R*,2S*)-2-hydroxycyclobutyl)-4-((S)-2-methylpyrrolidine-1-carbonyl)thiazole-2-carboxamide] | 4.2 | 106 | 35 | – | – | –
CC[C@H](Nc1cc(C(F)F)c(-c2sc(C(=O)NC3CN(S(C)(=O)=O)C3)nc2C(=O)N2CCC[C@@H]2C)cn1)C(F)(F)F [Example 383, 5-[4-(Difluoromethyl)-6-[[(1S)-1-(trifluoromethyl)propyl]amino]-3-pyridyl]-4-[(2S)-2-methylpyrrolidine-1-carbonyl]-N-(1-methylsulfonylazetidin-3-yl)thiazole-2-carboxamide] | 2.6 | 108 | 92 | – | – | –
CC[C@H](Nc1cc(C(F)F)c(-c2sc(C(=O)N[C@@H]3CCC[C@H]3O)nc2C(=O)N2CCC[C@@H]2C)cn1)C(F)(F)F [Example 231, 5-[4-(Difluoromethyl)-6-[[(1S)-1-(trifluoromethyl)propyl]amino]-3-pyridyl]-N-[(1R,2R)-2-hydroxycyclopentyl]-4-[(2S)-2-methylpyrrolidine-1-carbonyl]thiazole-2-carboxamide] | 1.4 | – | – | 92* % | 58 | –
C[C@H]1CCCN1C(=O)c1nc(C(=O)N[C@@H]2CC[C@H]2O)sc1-c1cnc(NC(C)(C)C)cc1C(F)(F)F (relative stereo) [Example 370, 5-(6-(tert-Butylamino)-4-(trifluoromethyl)pyridin-3-yl)-N-((1R*,2R*)-2-hydroxycyclobutyl)-4-((S)-2-methylpyrrolidine-1-carbonyl)thiazole-2-carboxamide] | 0.69 | 96 | 10 | – | – | –
CC[C@H](Nc1cc(C(F)F)c(-c2sc(C(=O)N[C@@H]3CC[C@@H](O)C3)nc2C(=O)N2C3CCC2CC3)cn1)C(F)(F)F [Example 152] | 0.88 | – | – | – | 11 | 102
C[C@H]1CCCN1C(=O)c1nc(C(=O)N(C)CC(C)(C)O)sc1-c1cnc(NC(C)(C)C)cc1C(F)(F)F [Example 340, 5-[6-(tert-Butylamino)-4-(trifluoromethyl)-3-pyridyl]-N-(2-hydroxy-2-methyl-propyl)-N-methyl-4-[(2S)-2-methylpyrrolidine-1-carbonyl]thiazole-2-carboxamide] | 5.3 | 111 | 11 | – | – | –
C[C@H]1CCCN1C(=O)c1nc(C(=O)NCC(O)(C(F)(F)F)C(F)(F)F)sc1-c1cnc(NC(C)(C)C)cc1C(F)(F)F [Example 271, 5-[6-(tert-Butylamino)-4-(trifluoromethyl)-3-pyridyl]-4-[(2S)-2-methylpyrrolidine-1-carbonyl]-N-[3,3,3-trifluoro-2-hydroxy-2-(trifluoromethyl)propyl]thiazole-2-carboxamide] | 4 | 106 | 5.7 | – | – | –
C[C@H]1CC(F)(F)CN1C(=O)c1nc(C(=O)NCC(C)(C)O)sc1-c1cnc(NCC(C)(C)C(F)(F)F)cc1C(F)(F)F [Example 121, (S)-4-(4,4-Difluoro-2-methylpyrrolidine-1-carbonyl)-N-(2-hydroxy-2-methylpropyl)-5-(6-((3,3,3-trifluoro-2,2-dimethylpropyl)amino)-4-(trifluoromethyl)pyridin-3-yl)thiazole-2-carboxamide] | 0.65 | – | – | 104* % | 25 | –
C[C@H]1CCCN1C(=O)c1nc(C(=O)N[C@@H]2CC[C@H]2O)sc1-c1cnc(NC(C)(C)C)cc1C(F)F (relative stereo) [Example 403, 5-(6-(tert-Butylamino)-4-(difluoromethyl)pyridin-3-yl)-N-(1R*,2R*)-2-hydroxycyclobutyl)-4-((S)-2-methylpyrrolidine-1-carbonyl)thiazole-2-carboxamide] | 4.5 | 108 | 36 | – | – | –

More lines, main results first:

Kd [1] [nM] | inhibition at 3 µM (full-length human RORγt) [%] | IC50 (full-length human RORγt) [nM] | RORγt (FL) Reporter Assay B or C, % inhibition (value marked *) (full-length human RORγt; Conditions B or C) | IC50 (full-length human RORγt; Conditions B or C) [nM] | SMILES | inhibition at 6 µM (full-length human RORγt; read-out: RORγt (FL) Reporter Assay B or C, % inhibition @ 6 μM, Conditions B or C, @ 6 μM) [%]
1.2 | 106 | 35 | – | – | CC[C@H](Nc1cc(C(F)F)c(-c2sc(C(=O)NC3CCCC3O)nc2C(=O)N2CCC[C@@H]2C)cn1)C(F)(F)F (stereo partly drawn) [Example 252, 5-(4-(Difluoromethyl)-6-(((S)-1,1,1-trifluorobutan-2-yl)amino)pyridin-3-yl)-N-(cis-2-hydroxycyclopentyl)-4-((S)-2-methylpyrrolidine-1-carbonyl)thiazole-2-carboxamide] | –
1.8 | 98 | 31 | – | – | C[C@H](NC(=O)c1nc(C(=O)N2CC(F)(F)C[C@@H]2C)c(-c2cnc(NC(C)(C)C)cc2C(F)F)s1)C(C)(C)O [Example 257, 5-[6-(tert-Butylamino)-4-(difluoromethyl)-3-pyridyl]-4-[(2S)-4,4-difluoro-2-methyl-pyrrolidine-1-carbonyl]-N-[(1S)-2-hydroxy-1,2-dimethyl-propyl]thiazole-2-carboxamide] | –
15 | 88 | 740 | – | – | C[C@H]1CCCN1C(=O)c1nc(C(=O)NCc2nnn[nH]2)sc1-c1cnc(NC(C)(C)C)cc1C(F)(F)F [Example 303, (S)—N-((1H-Tetrazol-5-yl)methyl)-5-(6-(tert-butylamino)-4-(trifluoromethyl)pyridin-3-yl)-4-(2-methylpyrrolidine-1-carbonyl)thiazole-2-carboxamide] | –
9.2 | 125 | 59 | – | – | C[C@H]1CCCN1C(=O)c1nc(C(=O)N2C[C@@H](O)[C@H](F)C2)sc1-c1cnc(NC(C)(C)C)cc1C(F)(F)F [Example 372, [5-[6-(tert-Butylamino)-4-(trifluoromethyl)-3-pyridyl]-2-[(3R,4R)-3-fluoro-4-hydroxy-pyrrolidine-1-carbonyl]thiazol-4-yl]-[(2S)-2-methylpyrrolidin-1-yl]methanone] | –
2.3 | 105 | 21 | – | – | C[C@H]1CCCN1C(=O)c1nc(C(=O)NC2CCS(=O)(=O)CC2)sc1-c1cnc(NC(C)(C)C)cc1C(F)F [Example 435, 5-[6-(tert-Butylamino)-4-(difluoromethyl)-3-pyridyl]-N-(1,1-dioxothian-4-yl)-4-[(2S)-2-methylpyrrolidine-1-carbonyl]thiazole-2-carboxamide] | –
